From US8809001B2, “High throughput assays for inhibitors and activators of PAQR receptors” (University of Florida Research Foundation, Inc., priority 2007, dated 2014)
Where “and” joins values, the source holds several entries; their conditions need not be identical. Identical values can stand only once.

What was measured:
[1] = target: T1, mPRβ (Homo sapiens, UniProt Q8TEZ7); test: FET3-lacZ reporter repression in yeast expressing mPRβ; type: cell-based; settings: Table 3, iron deficient LIM, 0.05% galactose
T1 construct: expressed in transfected cells; host or cells: Saccharomyces cerevisiae BY4742, GAL1-driven pYES260 plasmid
T1 sequence (Q8TEZ7 1-354): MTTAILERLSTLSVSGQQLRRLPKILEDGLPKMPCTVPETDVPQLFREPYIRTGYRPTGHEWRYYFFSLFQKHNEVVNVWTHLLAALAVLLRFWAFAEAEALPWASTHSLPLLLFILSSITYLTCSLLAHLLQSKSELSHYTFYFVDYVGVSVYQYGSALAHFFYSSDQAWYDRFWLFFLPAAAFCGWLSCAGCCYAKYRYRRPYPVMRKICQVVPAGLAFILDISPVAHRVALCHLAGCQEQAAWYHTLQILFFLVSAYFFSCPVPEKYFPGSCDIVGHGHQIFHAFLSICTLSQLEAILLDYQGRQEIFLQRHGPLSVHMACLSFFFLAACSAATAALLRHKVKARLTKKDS
Description: Plasmids and primers. Human PAQRs were cloned into various vectors by PCR from commercially/publically available cDNAs. PAQRs were cloned into the pYES260 (Melcher, 2000), pRS316 (Liu et al., 1992) or pGREG536 (Jansen et al., 2005) expression vectors using gap repair. The pJK90 plasmid containing a Dual Topology Reporter (DTR)-tagged OST4 gene driven by the constitutive TPI1 promoter was kindly provided by Dr. Gunnar von Heijne (Stockholm University) (Kim et al., 2003). The OST4 open reading frame in pJK90 was replaced with the PAQR6 and mPRα open reading frames by gap repair. Primers for all cloning reactions are listed herein. Proteins expressed in pYES260 have an N-terminal 6×-histidine tag followed by a TEV protease cleavage site. Proteins expressed in pGREG536 have an N-terminal 7×-HA tag. Proteins expressed in the pRS316 vector are untagged. The pYES260, pRS316 and pGREG536 vectors allow for galactose-inducible expression via the GAL1 promoter. […] The FET3-lacZ plasmid was previously described (Kupchak et al., 2007). […]
Assays and growth conditions. […] Cells were allowed to grow to mid-log phase at which time the activity of the FET3 gene was monitored using a FET3-lacZ promoter-reporter construct. lacZ activities are presented as a percentage of activity seen in untreated cells expressing the appropriate empty expression vector control. […]

[2] = system: FET3; test: FET3-lacZ reporter in wild type yeast carrying empty expression plasmid; type: cell-based, Saccharomyces cerevisiae; settings: no human PAQR
Description: Assays and growth conditions. Strains were maintained using standard protocol and grown in synthetic defined (SD) media with the appropriate amino acids to match the auxotrophies of the individual strains. Low Iron Medium (LIM) contains EDTA to limit iron-bioavailability and its composition has been previously described (Kupchak et al., 2007). […] In brief, overnights of cells grown in SD-glucose media were re-inoculated into iron-deficient LIM to induce the expression of FET3. 2% galactose was used as a carbon source to induce full expression of PAQR genes driven by the GAL1 promoter, while 0.05% galactose/1.95% raffinose was used for reduced PAQR expression. All ligands were added to the growth medium upon re-inoculation into LIM. For experiments in which steroids were added as ligands, steroids were added from ethanol stocks and “untreated” controls are actually treated with an equal volume of ethanol to control for vehicle effects. Cells were allowed to grow to mid-log phase at which time the activity of the FET3 gene was monitored using a FET3-lacZ promoter-reporter construct. lacZ activities are presented as a percentage of activity seen in untreated cells expressing the appropriate empty expression vector control. For individual experiments, each data point has been done in triplicate and the error bars represent +/−1 standard deviation. All experiments were performed at least three times and a representative experiment is shown. EC50 values were obtained using the web-based BioDataFit software using sigmoidal curve-fitting. (web site changbioscience.com/stat/ec50.html)

CC(=O)[C@H]1CC[C@H]2[C@@H]3CCC4=CC(=O)CC[C@]4(C)[C@H]3CC[C@]12C [Progesterone, progesterone]
EC50 [1]: 1.6 nM and 1 to 3 nM
effect of ligand on FET3 in cells carrying empty expression plasmid [2]: did not respond
